{"source": "patent US10710964B2", "about": "“Organic electrolyte compounds for redox-flow batteries” (FUNDACIÓN CENTRO DE INVESTIGACIÓN COOPERATIVA DE ENERGÍAS …, priority 2015, dated 2020)", "type_in_all_cases": "physicochemical", "key": {"[1]": {"experiment": "Experimental density of the electrolyte solutions", "text": "Considering the two electron-proton process taking place in the present redox molecules, for a constant amount of grams of salt the optimization of the final concentration will be a balance between the molecular weight and the packing density of the organic compounds in the electrolyte solution. Highest concentration values and subsequently of chemical-electrical energy density stored in the present systems would be achieved as higher the packing density and lower the molecular weight of the molecule. The experimental density of the present solutions containing the redox neutral salts were measured. Densities of 1.04 g/ml, 1.00 g/ml and 0.95 g/ml were measured for solutions 1.23 M of Alizarine SH in H2O, 1.17 M of Alizarine SH in H2O and 1.46 M of Alizarine SH in 0.1 M HClO4 respectively."}, "[2]": {"experiment": "Solubility studies (maximum concentration in aqueous media)", "conditions": "for solubility: 0.1 M HClO4, room temperature; for solubility (concentration values): medium not given", "procedure": "These were conducted in glass vials of 25 ml volume in which the organic electrolyte compound mass ranging between 15-30 mg approximately was dissolved in DI-H2O and also in the different supporting electrolytes. The procedure was performed in the following steps: after the addition of the solid, a small volume (usually starting from 25 μl) was added by using a micropipette, the suspension was vigorously shaken by hand until complete homogenization of the media in the whole vial (bottom part and walls) was observed. After that, the vials are left standing overnight. The day after, possible precipitation at the bottom of the vial was evaluated. If some solid appeared, the addition of more volume of solvent and/or supporting electrolyte was continued until the solid disappeared completely. […] The final concentration value was only calculated for those samples showing a stable solution after several weeks."}, "[3]": {"experiment": "Cyclic voltammetry in cavity micro-electrode, three-electrode cell", "conditions": "for shift of redox potential on sulphonation, lower oxidation state / shift of redox potential on sulphonation, upper oxidation state: 0.1 M HClO4, sulphonated form in comparison to the parent molecule", "procedure": "Attenuated Total Reflectance-Fourier Transform InfraRed (ATR-FTIR) spectra were recorded on Vertex 70 spectrometer (Bruker) in the range of wavelength of 4000-400 cm^−1. Differential Scanning Calorimetry measurements (DSC) were carried out on a TA Instruments Q2000 model in a sealed Al pan at a heating rate of 5° C. min^−1 in the temperature range between −80° C. and 100° C. The cyclic voltammetry measurements were performed in a cavity micro-electrode (CME) with an electrochemical interface area around a fraction of mm^2 and ohmic drop coming from the bulk of the electrolyte that can be neglected, allowing the use of high scan rates [C. Cachet-Vivier et al.; Electrochim. Acta 47, 181-189 (2001)]. The samples were studied electrochemically by using a three-electrode configuration cell in DI-H2O and the different supporting electrolytes with a platinum wire as counter electrode and Ag/AgCl or Hg/HgO as reference electrode depending of the acidic or basic pH of the media respectively.\nThe microcavity was filled with a homogenous mixture of active material (50 wt %) and carbon super C-65 (50 wt %) by applying pressure against an agate mortar. The cavity was cleaned by immersing the electrode in ethanol in an ultrasonic bath between experiments. For the CME, scan rates approximately an order of magnitude larger could be used without distortion usually seen in conventional cells [R. Lin et al., J. Electrochem. Soc. 1, A7-A12 (2009)]. All the experiments using CME were made three times for the same sample to check reliability. […] Cyclic voltammetry experiments were done from 10 mV/s to 1 V/s using a multichannel potentiostat/galvanostat (VMP3, Biologic). In order to make a direct comparison between the different samples, all current values were normalized to current values measured in the pure capacitive behavior region."}, "[4]": {"conditions": "aqueous BR buffer at pH=7, room temperature"}, "[5]": {"conditions": "pure/neat DI-H2O, room temperature"}, "[6]": {"conditions": "vs. Ag/AgCl ref. electrode, BR buffer pH=7"}}}
{"compound": "O=C1c2ccccc2C(=O)c2c1cc(S(=O)(=O)O)c(O)c2O", "note": "[Alizarin S. Red-H^+]", "values": [{"measurement": "density of solution", "setting": "[1]; 1.17 M solution in H2O", "value": 1.00, "unit": "g/mL"}, {"measurement": "density of solution", "setting": "[1]; 1.23 M solution in H2O", "value": 1.04, "unit": "g/mL"}, {"measurement": "density of solution", "setting": "[1]; 1.46 M solution in 0.1 M HClO4", "value": 0.95, "unit": "g/mL"}, {"measurement": "solubility", "setting": "[2]", "value": "~1500", "unit": "mM"}, {"measurement": "solubility (concentration values)", "setting": "[2]", "value": 1600, "unit": "mM"}]}
{"compound": "O=C1c2ccccc2C(=O)c2c(O)ccc(O)c21", "note": "[quinizarin, 1,4-dihydroxy-9,10-anthraquinone, reference compound]", "values": [{"measurement": "shift of redox potential on sulphonation, lower oxidation state", "setting": "[3]", "value": "~100", "unit": "mV"}, {"measurement": "shift of redox potential on sulphonation, upper oxidation state", "setting": "[3]", "value": "~15", "unit": "mV"}]}
{"compound": "O=C1/C(=C2\\Nc3ccc(S(=O)(=O)[O-])cc3C2=O)Nc2ccc(S(=O)(=O)[O-])cc21.OCC[N+](CCO)(CCO)CCO.OCC[N+](CCO)(CCO)CCO", "note": "[Indigo Carmine-TKEN]", "values": [{"measurement": "peak separation of the two redox peaks", "setting": "[3]; BR buffer pH=7", "value": 1, "unit": "V"}, {"measurement": "solubility (highest concentration)", "setting": "[2]; [4]", "value": "up to 0.76 M"}, {"measurement": "solubility (concentration values)", "setting": "[2]", "value": "up to 0.76 M"}, {"measurement": "solubility (highest concentration)", "setting": "[2]; [5]", "value": "up to 0.76 M"}]}
{"compound": "O=C1/C(=C2\\Nc3ccccc3C2=O)Nc2ccccc21", "note": "[Indigo, 2,2′-Bis(2,3-dihydro-3-oxoindolylidene), reference compound]", "values": [{"measurement": "reduction peak at negative potential", "setting": "[3]; [6]", "value": "−0.44", "unit": "V"}, {"measurement": "reduction peak at positive potential", "setting": "[3]; [6]", "value": 0.31, "unit": "V"}]}
{"compound": "O=C1c2ccccc2C(=O)c2c1cc(S(=O)(=O)[O-])c(O)c2O.OC[P+](CO)(CO)CO", "note": "[Alizarin S. Red-TKMP]", "values": [{"measurement": "solubility", "setting": "[2]", "value": "~1500", "unit": "mM"}, {"measurement": "solubility (concentration values)", "setting": "[2]", "value": 1600, "unit": "mM"}]}
{"compound": "O=C1C(=C2Nc3ccc(S(=O)(=O)[O-])cc3C2=O)Nc2ccc(S(=O)(=O)[O-])cc21.[Na+].[Na+]", "note": "[Indigo Carmine-Na^+, 3,3′-dioxo-2,2′-bis-indolyden-5,5′-disulfonic acid disodium salt]", "values": [{"measurement": "anodic shift of both pairs of peaks relative to Indigo", "setting": "[3]; BR buffer pH=7", "value": "approximately 80 mV"}]}
{"compound": "O=C1C(=C2Nc3ccc(S(=O)(=O)[O-])cc3C2=O)Nc2ccc(S(=O)(=O)[O-])cc21.OC[P+](CO)(CO)CO.OC[P+](CO)(CO)CO", "note": "[Indigo Carmine-TKMP]", "values": [{"measurement": "peak separation of the two redox peaks", "setting": "[3]; BR buffer pH=7", "value": 1, "unit": "V"}]}
{"compound": "O=C1/C(=C2\\Nc3ccc(S(=O)(=O)O)cc3C2=O)Nc2ccc(S(=O)(=O)O)cc21", "note": "[Indigo Carmine-H^+]", "values": [{"measurement": "separation of the pair of reversible reduction peaks", "setting": "[3]; BR buffer pH=3", "value": "~0.75", "unit": "V"}, {"measurement": "peak separation of the two redox peaks", "setting": "[3]; BR buffer pH=7", "value": "~1", "unit": "V"}, {"measurement": "separation of both peaks", "setting": "[3]; BR buffer pH=9, stabilized at cycle 10", "value": "~0.8", "unit": "V"}, {"measurement": "anodic shift in DI-H2O relative to BR buffer pH=7", "setting": "[3]; DI-H2O, pH ~6", "value": "~170", "unit": "mV"}, {"measurement": "peak separation of the two redox peaks", "setting": "[3]; neat DI-H2O", "value": "~1", "unit": "V"}, {"measurement": "solubility (highest concentration)", "setting": "[2]; [4]", "value": "~400", "unit": "mM"}, {"measurement": "solubility (highest concentration)", "setting": "[2]; [5]", "value": "~600", "unit": "mM"}]}
{"compound": "O=C1c2ccccc2C(=O)c2c1ccc(O)c2O", "note": "[alizarin, 1,2-dihydroxy-9,10-anthraquinone, reference compound]", "values": [{"measurement": "shift of redox potential on sulphonation, lower oxidation state", "setting": "[3]", "value": "~50", "unit": "mV"}, {"measurement": "shift of redox potential on sulphonation, upper oxidation state", "setting": "[3]", "value": "~35", "unit": "mV"}]}
